Laboratory results published in ChEMBL document CHEMBL3856276, “Design, Synthesis, and Biological Evaluation of Novel Tetrahydroprotoberberine Derivatives (THPBs) as Selective α1A-Adrenoceptor Antagonists” (J Med Chem, 2016).

What was measured:
[1] = molecular target: T1, Alpha-1A adrenergic receptor (Homo sapiens) (UniProt P35348); assay: Antagonist activity at human full-length N-terminal SNAP-tagged alpha1A adrenoceptor expressed in HEK293 cells assessed as inhibition of agonist-induced calcium mobilization at 10 uM preincubated for 10 mins followed by agonist addition by fluo-4 AM dye-based assay relative to control; format: functional, cell-based
T1 sequence (whole entry): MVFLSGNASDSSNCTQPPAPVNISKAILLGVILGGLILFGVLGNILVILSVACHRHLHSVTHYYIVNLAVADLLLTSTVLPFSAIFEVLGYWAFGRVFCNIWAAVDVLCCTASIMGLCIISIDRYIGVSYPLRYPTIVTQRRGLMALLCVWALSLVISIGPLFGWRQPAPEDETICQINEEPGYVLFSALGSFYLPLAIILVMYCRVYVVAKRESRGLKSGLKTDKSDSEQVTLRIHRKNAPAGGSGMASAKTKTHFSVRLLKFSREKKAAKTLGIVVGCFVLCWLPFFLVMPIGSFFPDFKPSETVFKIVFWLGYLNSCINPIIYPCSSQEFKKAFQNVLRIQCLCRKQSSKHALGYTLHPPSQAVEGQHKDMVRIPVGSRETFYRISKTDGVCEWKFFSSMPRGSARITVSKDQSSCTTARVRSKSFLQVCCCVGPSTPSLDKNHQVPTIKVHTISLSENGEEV

[2] = molecular target: T2, Alpha-1A adrenergic receptor (Rattus norvegicus, UniProt P43140); assay: Antagonist activity at alpha1A adrenoceptor in Sprague-Dawley rat urethra assessed as inhibition of norepinephrine-induced smooth muscle contraction after 20 mins
T2 sequence (P43140 whole entry): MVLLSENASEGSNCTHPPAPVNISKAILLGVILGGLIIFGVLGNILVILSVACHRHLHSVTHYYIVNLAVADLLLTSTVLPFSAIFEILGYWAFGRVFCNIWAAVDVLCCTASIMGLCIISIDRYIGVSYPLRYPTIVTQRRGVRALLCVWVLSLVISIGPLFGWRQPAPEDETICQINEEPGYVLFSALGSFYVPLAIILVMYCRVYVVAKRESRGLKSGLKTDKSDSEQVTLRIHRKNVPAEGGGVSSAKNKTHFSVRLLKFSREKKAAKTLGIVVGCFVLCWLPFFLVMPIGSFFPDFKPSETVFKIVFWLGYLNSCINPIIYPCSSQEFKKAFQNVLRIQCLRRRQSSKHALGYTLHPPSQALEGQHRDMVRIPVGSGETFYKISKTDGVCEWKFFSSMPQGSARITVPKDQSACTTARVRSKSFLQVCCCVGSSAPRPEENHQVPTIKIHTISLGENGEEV

[3] = molecular target: T3, Alpha-1B adrenergic receptor (Rattus norvegicus, UniProt P15823); assay: Antagonist activity at alpha1B adrenoceptor in Sprague-Dawley rat aorta assessed as inhibition of norepinephrine-induced smooth muscle contraction after 20 mins
T3 sequence (P15823 whole entry): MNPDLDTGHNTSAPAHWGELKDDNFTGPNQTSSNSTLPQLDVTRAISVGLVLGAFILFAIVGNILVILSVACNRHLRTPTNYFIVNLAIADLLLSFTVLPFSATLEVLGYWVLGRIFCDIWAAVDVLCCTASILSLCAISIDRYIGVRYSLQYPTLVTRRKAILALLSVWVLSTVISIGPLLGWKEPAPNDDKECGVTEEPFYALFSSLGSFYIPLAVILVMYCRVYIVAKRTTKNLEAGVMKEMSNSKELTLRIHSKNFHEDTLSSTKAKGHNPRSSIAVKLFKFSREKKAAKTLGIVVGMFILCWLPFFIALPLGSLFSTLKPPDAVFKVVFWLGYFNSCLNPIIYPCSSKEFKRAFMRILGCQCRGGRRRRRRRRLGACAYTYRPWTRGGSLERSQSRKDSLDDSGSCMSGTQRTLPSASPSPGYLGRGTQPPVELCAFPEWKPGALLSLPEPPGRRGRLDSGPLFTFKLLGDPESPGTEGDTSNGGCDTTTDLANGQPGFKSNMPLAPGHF

Rattus norvegicus [4] = assay: Inhibition of micturition frequency in po dosed Sprague-Dawley rat benign prostatic hyperplasia model administered 20 mins followed by distilled watering loading measured for 2 hrs; format: functional
Rattus norvegicus [5] = assay: Increase in voided volume in po dosed Sprague-Dawley rat benign prostatic hyperplasia model administered 20 mins followed by distilled watering loading measured for 2 hrs; format: functional
[6] = molecular target: Voltage-gated inwardly rectifying potassium channel KCNH2 (Homo sapiens, UniProt Q12809); assay: Inhibition of human ERG
Chain of Voltage-gated inwardly rectifying potassium channel KCNH2 (Q12809 whole entry): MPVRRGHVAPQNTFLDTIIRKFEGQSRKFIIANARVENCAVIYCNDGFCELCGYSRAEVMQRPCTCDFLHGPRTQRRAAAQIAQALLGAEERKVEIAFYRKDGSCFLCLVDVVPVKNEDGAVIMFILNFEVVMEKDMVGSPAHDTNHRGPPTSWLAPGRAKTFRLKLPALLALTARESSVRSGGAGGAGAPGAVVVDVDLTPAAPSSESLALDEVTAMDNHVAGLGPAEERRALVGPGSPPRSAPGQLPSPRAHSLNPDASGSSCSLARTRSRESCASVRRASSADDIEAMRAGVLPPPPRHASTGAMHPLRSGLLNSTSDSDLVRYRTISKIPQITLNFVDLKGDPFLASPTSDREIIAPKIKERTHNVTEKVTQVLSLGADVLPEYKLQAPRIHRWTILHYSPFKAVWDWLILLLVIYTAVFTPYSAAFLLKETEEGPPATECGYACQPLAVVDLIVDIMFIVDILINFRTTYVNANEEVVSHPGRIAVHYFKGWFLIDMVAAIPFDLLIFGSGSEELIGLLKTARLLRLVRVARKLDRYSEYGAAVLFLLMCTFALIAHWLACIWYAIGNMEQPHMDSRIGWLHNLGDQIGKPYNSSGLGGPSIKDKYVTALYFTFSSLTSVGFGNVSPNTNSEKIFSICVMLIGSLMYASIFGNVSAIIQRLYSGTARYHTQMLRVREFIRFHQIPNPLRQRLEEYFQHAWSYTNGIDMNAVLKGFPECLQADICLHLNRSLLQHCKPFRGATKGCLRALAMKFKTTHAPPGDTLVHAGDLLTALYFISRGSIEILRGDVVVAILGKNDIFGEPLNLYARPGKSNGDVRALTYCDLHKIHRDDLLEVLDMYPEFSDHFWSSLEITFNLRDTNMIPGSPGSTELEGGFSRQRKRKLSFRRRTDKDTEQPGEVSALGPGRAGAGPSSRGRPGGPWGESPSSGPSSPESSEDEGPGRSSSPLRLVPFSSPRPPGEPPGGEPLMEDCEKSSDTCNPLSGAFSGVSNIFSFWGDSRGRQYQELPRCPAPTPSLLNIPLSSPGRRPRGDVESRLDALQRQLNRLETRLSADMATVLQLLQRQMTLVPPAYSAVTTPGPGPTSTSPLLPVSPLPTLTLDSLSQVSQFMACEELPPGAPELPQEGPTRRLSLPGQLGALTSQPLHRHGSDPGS

[7] = Toxicity in patient assessed as orthostatic hypotension; conditions: human, in vivo

inhibition [1]: 100% | IC50 [2]: 0.8 nM | IC50 [3]: 90.1 nM
Compound: C[C@H](Cc1cc2c(c(C(N)=O)c1)N(CCCO)CC2)NCCOc1ccccc1OCC(F)(F)F [SILODOSIN]
inhibition (Rattus norvegicus [4]): Dose-dependent effect | Activity (Rattus norvegicus [5]): Dose-dependent effect | IC50 [6]: 8200 nM | Activity [7]: 2.6%
